Assay results published in paper PMC7217877, “N-AS-triggered SPMs are direct regulators of microglia in a model of Alzheimer’s disease” (Nature Communications, 2020).
Values joined by “and” are separate entries in the source; they are usually repeats but may differ in a detail not shown here. Identical values can stand only once.

Key:
SphK1 = target: T1, SphK1 (Homo sapiens, UniProt Q9NYA1); test: S1P formation by SphK1 (UPLC, Supplementary Fig 1e); type: biochemical; conditions: acetyl-CoA 0-50 mM
T1 construct: purchased Cayman 10348
T1 sequence (Q9NYA1 whole entry): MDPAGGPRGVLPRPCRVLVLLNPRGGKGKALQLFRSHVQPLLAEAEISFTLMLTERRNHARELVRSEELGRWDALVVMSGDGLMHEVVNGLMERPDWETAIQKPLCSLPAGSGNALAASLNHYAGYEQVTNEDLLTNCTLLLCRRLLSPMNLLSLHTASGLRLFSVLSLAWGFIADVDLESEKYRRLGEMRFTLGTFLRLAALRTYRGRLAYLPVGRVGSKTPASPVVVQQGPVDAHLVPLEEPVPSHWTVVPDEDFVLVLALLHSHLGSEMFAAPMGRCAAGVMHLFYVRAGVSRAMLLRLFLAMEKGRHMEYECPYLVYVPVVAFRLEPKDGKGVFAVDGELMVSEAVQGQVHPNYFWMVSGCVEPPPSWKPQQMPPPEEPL
Experimental: We confirmed S1P formation through SphK1 enzymatic activity measurements as previously described[11] using a UPLC (Ultra performance liquid chromatography) system (Waters). […] After pre-incubation, 1 mM ATP (Amresco, 0220) was added the mixture, and it was incubated at 37 °C for 1 h. The […] reactions were stopped by adding 53 μl of ethanol, and centrifuged at 15,493×g for 5 min. Thirty microliter of the supernatant was then transferred to a sampling glass vial and 5 μl was applied onto a UPLC system for analysis. S1P formation was followed as phosphorylation of (7-nitro-2-1,3-benzoxadiazol-4-yl)-d-erythro (NBD)-sphingosine (Avanti Polar Lipids) to NBD-S1P. Quantification was achieved by comparison with NBD-S1P (Avanti Polar Lipids) standards.

APP/PS1 mice = test: light-dark test (Supplementary Fig 7j-n); type: in vivo, mouse; conditions: N-AS vs APP/PS1
Experimental: Transgenic mouse lines over-expressing the hAPP695swe (APP) and presenilin-1M146V (PS1) mutations were originated from GlaxoSmithKline (Harlow, UK)[32] and maintained as described previously. We purchased 5×FAD mice from Jackson Labs (Stock number. 34840-JAX). Because APP/PS1 and 5xFAD mice show sex differences in disease progression, we used only male mice. To examine possible therapeutic effect of N-AS and aspirin in APP/PS1 mice, the N-AS (30 mg kg^−1, Sigma-Aldrich, 01912) was injected daily s.c. for 8 weeks to 7-months-old APP/PS1 mice until the age of 9 months, and aspirin (2 mg kg^−1, Sigma-Aldrich, A5376)[33] was administrated orally to 7-months-old APP/PS1 mice for 8 weeks. […] Block randomization method was used to allocate the animals to experimental groups. To eliminate the bias, we were blinded in experimental progress such as data collection and data analysis. Mice were housed at temperature of 22 °C and a 12 h day/12 h night cycle with free access to tap water and food pellets. All protocols were approved by the Kyungpook National University Institutional Animal Care and Use Committee. […] Freezing was analyzed for 5 min. […] Overall activity in the box was measured, and the amount of time and distance traveled in the center arena was noted. […] The total number of transitions, latency to first enter the light chamber, distance traveled, and time spent in each chamber were recorded.

microglia = test: acetyl-CoA level in primary cells (assay kit); type: cell-based, C57BL/6 mice; conditions: Ab 10mM, replicates
Experimental: To confirm the generation and roles of N-AS in neurons, cells from E18 C57BL/6 mice were prepared as previously described. Cortices were dissected and then dissociated followed by incubation in papain (Worthington) at 37 °C for 15 min. Neurons were plated on poly-L-lysine-coated coverslips with neuronal culture medium, serum-free Neurobasal medium (Gibco) containing 2% B27 supplements (Gibco), 1 mM Glutamax supplement (Gibco), and 100 U ml^−1 streptomycin/ 100 U ml^−1 penicillin (Gibco) at 37 °C in a humidified atmosphere of 5% CO2. Aβ 1–42 (10 μM, 24 h, Invitrogen, 03112) was exposed to neurons and the cells were analyzed for the generation and roles of N-AS. Primary astrocyte cultures were prepared from C57BL/6 mice as described previously. In brief, after removal of the meninges, postnatal day 7 (P7) mouse brain tissues were minced and incubated in a rocking water bath at 37 °C for 30 min in the presence of 0.25% trypsin-EDTA (Sigma-Aldrich). Enzyme-digested dissociated cells were triturated with astrocyte-specific medium (DMEM/F12 containing 10% FBS and 1% penicillin-streptomycin) and centrifuged at 155×g for 8 min. […] The human microglia treated with Aβ 1–42 and/or zileuton was incubated with N-AS (2.5 μM, 2 h, Sigma-Aldrich, 01912), and were analyzed for the generation and roles of N-AS. […]

## CC(=O)SCCNC(=O)CCNC(=O)[C@H](O)C(C)(C)COP(=O)(O)OP(=O)(O)OC[C@H]1O[C@@H](n2cnc3c(N)ncnc32)[C@H](O)[C@@H]1OP(=O)(O)O [Acetyl-CoA, acetyl-CoA]
SphK1
  S1P formation by SphK1, in words: inhibited S1P formation in a concentration dependent fashion

## CCCCCCCCCCCCC/C=C/[C@@H](O)[C@H](CO)NC(C)=O [N-AS, N-((2S,3R,E)-1,3-Dihydroxyoctadec-4-en-2-yl)acetamide]
APP/PS1 mice
  light–dark test: did not differ between the groups

## Ab: Aβ 1–42 (Invitrogen, 03112) used to induce an AD environment in cells
microglia
  acetyl-CoA (Fig 3e): 0.5557 and 0.2327 and 0.5301 and 0.5514 and 0.536 and 0.6185
